Test results from patent US6600072B2, “Substituted 1-naphthoylguanidines, process for their preparation, their use as a medicament or diagnostic , and medicament containing them” (Aventis Pharma Deutschland GmbH, priority 1996, dated 2003).
Structures can show the parent of a compound that is named as a salt.

Tested on: rat hearts
Test: not given
Settings: isolated rat hearts; cited from earlier work

Structure (SMILES) | potency relative to amiloride in the ventricular fibrillation model | suppression of artificially induced ventricular fibrillation
CCN(c1nc(N)c(C(=O)NC(=N)N)nc1Cl)C(C)C [ethylisopropylamiloride, Ethylisopropylamiloride] | even more potent than amiloride | –
N=C(N)NC(=O)c1nc(Cl)c(N)nc1N [amiloride, Amiloride] | – | suppressed completely

Target: T1, Na^+/H^+ exchanger of rabbit erythrocytes (Oryctolagus cuniculus, UniProt P23791)
T1 construct: determine the Na^+ influx into the erythrocytes via Na^+/H^+ exchange by flame photometry; endogenous in cells; host or cells: erythrocytes in whole blood of cholesterol-fed White New Zealand rabbits
T1 sequence (P23791 whole entry): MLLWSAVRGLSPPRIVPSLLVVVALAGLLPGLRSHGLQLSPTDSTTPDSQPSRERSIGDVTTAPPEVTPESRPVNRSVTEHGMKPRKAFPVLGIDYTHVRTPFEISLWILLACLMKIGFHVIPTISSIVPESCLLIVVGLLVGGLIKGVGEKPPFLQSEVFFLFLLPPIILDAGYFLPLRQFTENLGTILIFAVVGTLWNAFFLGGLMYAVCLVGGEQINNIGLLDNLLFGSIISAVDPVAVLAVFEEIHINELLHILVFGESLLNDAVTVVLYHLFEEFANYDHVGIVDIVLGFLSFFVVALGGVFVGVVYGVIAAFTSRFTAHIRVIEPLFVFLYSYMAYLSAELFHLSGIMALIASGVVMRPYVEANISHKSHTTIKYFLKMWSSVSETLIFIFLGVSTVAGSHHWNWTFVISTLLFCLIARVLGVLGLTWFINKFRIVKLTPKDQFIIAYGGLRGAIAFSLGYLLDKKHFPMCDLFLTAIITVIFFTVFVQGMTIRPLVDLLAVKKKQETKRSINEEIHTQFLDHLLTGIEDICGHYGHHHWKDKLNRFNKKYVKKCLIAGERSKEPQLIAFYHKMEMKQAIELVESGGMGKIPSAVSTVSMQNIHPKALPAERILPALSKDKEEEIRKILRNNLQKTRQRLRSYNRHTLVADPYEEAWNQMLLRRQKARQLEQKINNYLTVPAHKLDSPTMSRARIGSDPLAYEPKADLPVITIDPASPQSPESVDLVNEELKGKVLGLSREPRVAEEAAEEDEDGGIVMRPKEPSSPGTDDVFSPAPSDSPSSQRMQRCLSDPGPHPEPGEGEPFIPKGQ
Test: Inhibition of the Na+/H+ exchanger of rabbit erythrocytes (amiloride-sensitive sodium influx, flame photometry)
Assay type: cell-based
Settings: pH 7.4, 37° C., hyperosmolar salt-sucrose medium
Source text: Inhibition of the Na^+/H^+ exchanger of rabbit erythrocytes:
White New Zealand rabbits (Ivanovas) received a standard diet containing 2% cholesterol for six weeks in order to activate Na^+/H^+ exchange and thus to be able to determine the Na^+ influx into the erythrocytes via Na^+/H^+ exchange by flame photometry. The blood was taken from the auricular arteries and rendered uncoagulable by means of 25 lU/ml of potassium heparin. A part of each sample was used for the duplicate determination of the hematocrit by centrifugation. Aliquots of 100 μl in each case were used to measure the Na^+ starting content of the erythrocytes.
In order to determine the amiloride-sensitive sodium influx, 100 μl of each blood sample were incubated at pH 7.4 and 37° C. in 5 ml in each case of a hyperosmolar salt-sucrose medium (mmol/l: 140 NaCl, 3 KCl, 150 sucrose, 0.1 ouabain, 20 trishydroxymethylaminomethane). The erythrocytes were then washed three times with ice-cold MgCl2-ouabain solution (mmol/l: 112 MgCl2, 0.1 ouabain) and hemolyzed in 2.0 ml of distilled water. The intracellular sodium content was determined by flame photometry.
The net Na^+ influx was calculated from the difference between sodium starting values and the sodium content of the erythrocytes after incubation. The amiloride-inhibitable sodium influx ensued from the difference in the sodium content of the erythrocytes after incubation with and without amiloride 3×10^−4 mol/l. The sodium influx was also determined in this manner in the case of the compounds according to the invention.

Structure (SMILES) | IC50
CC(C)Oc1ccc2ccccc2c1C(=O)NC(=N)N [Example 18, 2-Isopropyloxy-1-naphthoylguanidine Hydrochloride] | 2 µM
CCCCOc1ccc2ccccc2c1C(=O)NC(=N)N [Example 14, 2-Butyloxy-1-naphthoylguanidine Hydrochloride] | 1 µM
Cl.NC(N)=NC(=O)c1ccc(F)c2ccccc12 [Example 1, 4-Fluoro-1-naphthoylguanidine Hydrochloride] | 1 to 2 µM
COc1ccc2ccccc2c1C(=O)NC(=N)N [Example 8, 2-Methoxy-1-naphthoylguanidine Hydrochloride] | 0.5 µM
N=C(N)NC(=O)c1cccc2ccccc12 [Example 6, 1-Naphthoylguanidine Hydrochloride] | 10 µM

Tested on: not given
Test: not given
Settings: not given

melting point | Structure (SMILES)
> 260 °C | COc1ccc2c(C(=O)N=C(N)N)cccc2c1C(F)(F)F (as salt: hydrochloride) [Example 3, 6-Methoxy-5-trifluoromethyl-1-naphthoyl-guanidine Hydrochloride]
245 °C | Cl.NC(N)=NC(=O)c1ccc(F)c2ccccc12 [Example 1, 4-Fluoro-1-naphthoylguanidine Hydrochloride]
270 °C (dec.) | NC(N)=NC(=O)c1ccc(C(=O)N=C(N)N)c2ccccc12 [Example 23, Naphthaline-1,4-dicarboxylic Acid Diguanidide]
235 to 236 °C | COc1ccc2c(C(=O)N=C(N)N)cccc2c1 (as salt: hydrochloride) [Example 4, 6-Methoxy-1-naphthoylguanidine Hydrochloride]
205 to 210 °C | NC(N)=NC(=O)c1c(OCc2ccc(CN3CCCCC3)cc2)ccc2ccccc12 [Example 10, 2-[4-(1-Piperidinomethyl)benzyloxy]-1-naphthoylguanidine]
198 to 202 °C | NC(N)=NC(=O)c1c(OCc2ccc(Br)cc2)ccc2ccccc12 (as salt: hydrochloride) (hydrate or solvate) [Example 9, 2-(4-Bromobenzyloxy)naphthoylguanidine Hydrochloride Hemihydrate]
